Measurements: US20200131473A1, “METHOD OF GENERATING 2 CELL-LIKE STEM CELLS” (IFOM FONDAZIONE ISTITUTO FIRC DI ONCOLOGIA MOLECOLARE, priority 2017, published 2020)

Experiments:
[1] = system: morula stage mouse embryos; assay: qPCR for 2C-embryo specific genes in APH-treated morula-stage mouse embryos; type: cell-based
Experimental: (§1) RNA was extracted using RNeasy mini kit (QIAGEN), quantified by NanoDrop spectrophotometer and cDNA was prepared from 2 μg total DNA-depleted RNA using SuperScript™ III reverse transcriptase kit (Invitrogen cat #18080-093) following manufacturer's instructions. qPCR assay performed based on standard protocol using 10× SsoFast™ EvaGreen® Supermix or later 1× LightCycler 480 SYBR Green I Master (Roche, 04707516001), 0.5 μM primer mix and 5 ng of cDNA. GAPDH was used as internal control to normalise the qPCR data following ΔΔCt method, 10 μM primer mix and a total amount of cDNA corresponding to 5 ng of starting RNA for each reaction.
Cryopreserved C57BL/6N morulae purchased from Janvier Labs (QUICKBLASTO®), were thawed according to the manufacturer's protocol. After recovery, a group of healthy morulae were treated with APH at final concentration of 1.5 μM in KSOM culture medium for 4 hrs while the rest were kept as control. The day after, the same number of morphologically healthy and synchronized blastocysts (22 and 7 blastocysts in the 1st and 2nd round, respectively) were selected from both groups. […] As the quantity of isolated RNA is not detectable by NanoDrop spectrophotometer, the supernatant was directly used for cDNA preparation following centrifugation at 10621 g for 2 minutes. cDNA preparation and qPCR were performed following the aforementioned protocols. […]

[2] = system: mouse embryonic fibroblast (MEF) lines; assay: qPCR for 2C-specific markers in MEF lines; type: cell-based; settings: two MEF lines with distinct genetic backgrounds
Experimental: ESCs were grown in feeder free culture condition either with or without 0.1% gelatin coat and incubated in 37° C. and 3% 02 tension. ESC medium (high glucose DMEM (DMEM Media—GlutaMAX™-I, Gibco)), 15% ESC qualified FBS (HyClone™ Fetal Bovine Serum), 2 mM L-glutamine, 1/500 home-made leukemia inhibitory factor, 0.1 mM non-essential amino acids, 0.1 mM 2-bmercaptoethanol, 50 units/ml penicillin, […] streptomycin, 1 mM Sodium Pyruvate) supplemented with two inhibitors (2i from Axon medchem) that are PD 0325901; highly specific non-ATP-competitive inhibitor of MEK (aka MKK) 1/2 at final concentration of 1 uM and CHIR 99021; specific glycogen synthase kinase GSK-3 inhibitor at final concentration of 3 uM. MEF cells were cultured in MEF medium (high glucose DMEM (Lonza), 10% north America FBS, 2 mM L-glutamine, 0.1 mM non-essential amino acids, 50 units/ml penicillin, 1 mM Sodium Pyruvate and […] streptomycin).
as §1, with “GAPDH was used as internal control to normalise the qPCR data following ΔΔCt method, 10 μM primer mix and a total amount of cDNA corresponding to 5 ng of starting RNA for each reaction.” left out

C[C@@]1(CO)[C@H](O)CC[C@@]2(C)[C@H]1CC[C@H]1C[C@@H]3C[C@@]12CC[C@]3(O)CO [APH, aphidicolin]
expression of 2C embryo specific markers Dux, MERVL and Gm4981 (qPCR) ([1]; morula-stage embryos treated with APH, blastocyst stage): activated the expression of several key 2C embryo specific markers | expression of 2C-embryo-specific genes Zscan4, Tcstv3, GM12794 and Eif1a (qPCR) ([1]; morula-stage embryos, APH 1.5 μM for 4 hrs, blastocysts analysed the day after): activate several key 2C-embryo-specific genes | expression of main 2C-specific markers such as MuERV-L in MEF lines [2]: do not alter
